# Literature values as cited in paper PMC12009570 (International Journal of Nanomedicine, 2025).
# Key:
# [1] = not given; remark: listed apart in the source
smiles,measurement,setting,value
"Cl.O=C1[C@@H]2[C@H]3CC[C@H](C3)[C@@H]2C(=O)N1C[C@@H]1CCCC[C@H]1CN1CCN(c2nsc3ccccc23)CC1 [LSD, Lurasidone hydrochloride]",oral bioavailability,"conventional tablets, oral",9–19%
same,"AUC, times higher than in the fasted state",food effect,2 times
same,"Cmax, times higher than in the fasted state",food effect,3 times
same,pH at which most soluble,[1],3.8
